Assay results: patent publication US20090142347A1, “Tissue-Nonspecific Alkaline Phosphatase (TNAP): a Therapeutic Target for Arterial Calcification” (THE BURNHAM INSTITUTE FOR MEDICAL RESEARCH, priority 2004, published 2009)

Columns and labels:
[1] = target: T1, chTNALP (Gallus gallus, UniProt Q92058); test: Ki of uncompetitive inhibitors (pNPP substrate); assay type: biochemical, chicken; conditions: read-out: Ki for various inhibitors
T1 sequence (Q92058 17-498): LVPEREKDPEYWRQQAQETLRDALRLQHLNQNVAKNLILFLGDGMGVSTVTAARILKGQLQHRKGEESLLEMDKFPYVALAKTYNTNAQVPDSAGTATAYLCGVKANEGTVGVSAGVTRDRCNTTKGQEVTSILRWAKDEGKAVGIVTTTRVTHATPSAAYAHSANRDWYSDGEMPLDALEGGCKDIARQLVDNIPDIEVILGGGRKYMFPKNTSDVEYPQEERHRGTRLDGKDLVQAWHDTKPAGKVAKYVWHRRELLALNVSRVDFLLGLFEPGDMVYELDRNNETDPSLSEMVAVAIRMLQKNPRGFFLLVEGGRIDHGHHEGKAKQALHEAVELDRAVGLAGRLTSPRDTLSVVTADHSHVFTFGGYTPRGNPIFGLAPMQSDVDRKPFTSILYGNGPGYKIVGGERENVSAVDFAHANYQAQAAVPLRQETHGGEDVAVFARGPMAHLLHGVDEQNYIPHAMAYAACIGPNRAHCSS
Source text: (See Kozlenkov A, et al., 2002). […] TNAP and PLAP structures were superimposed and the amino acid differences within a 12 Å radius around the catalytic Zn1 ion were pinpointed. The difference between human TNAP and chicken TNAP were also mapped because it is reported that chicken TNAP is much less susceptible to levamisol than is human TNAP. In total, six positions with amino acid differences were found, which could be clustered into two groups. […] In addition, […] and […] were also investigated.

[2] = target: T2, hPLALP (E107, G429) (Homo sapiens, UniProt P05187, E451G/F129E); test: Ki of uncompetitive inhibitors (pNPP substrate); assay type: biochemical; conditions: hPLALP mutant (E107, G429); read-out: Ki for various inhibitors
T2 construct: made in house; host or cells: COS-7 (given only for the TNAP-Flag constructs)
T2 sequence (P05187 23-506 F129E/E451G limits assumed): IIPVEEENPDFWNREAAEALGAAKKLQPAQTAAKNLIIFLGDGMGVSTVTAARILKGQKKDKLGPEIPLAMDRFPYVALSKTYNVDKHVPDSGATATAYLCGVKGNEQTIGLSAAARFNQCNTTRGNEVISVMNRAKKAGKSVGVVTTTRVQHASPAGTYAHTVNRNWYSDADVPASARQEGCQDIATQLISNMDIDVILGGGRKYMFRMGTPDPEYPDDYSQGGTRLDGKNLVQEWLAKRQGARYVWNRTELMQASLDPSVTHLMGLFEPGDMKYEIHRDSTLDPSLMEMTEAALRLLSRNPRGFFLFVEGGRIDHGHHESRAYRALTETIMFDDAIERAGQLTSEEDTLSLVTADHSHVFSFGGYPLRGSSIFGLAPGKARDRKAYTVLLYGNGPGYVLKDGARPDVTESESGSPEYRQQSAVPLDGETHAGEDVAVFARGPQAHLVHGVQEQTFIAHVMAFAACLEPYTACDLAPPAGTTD
Protocol: (§1) In brief, samples of the enzymes were added to microtiter plates coated with M2 anti-FLAG antibody, and saturating activities with the substrate pNPP were measured in 1 M DEA/HCl buffer, pH 9.8, containing 1 mM MgCl2 and 20 .micro.M ZnCl2.

[3] = target: T3, hPLALP (Homo sapiens, UniProt P05187); test: Ki of uncompetitive inhibitors (pNPP substrate); assay type: biochemical; conditions: read-out: Ki for various inhibitors
T3 construct: made in house
T3 sequence (P05187 23-506 limits assumed): as the sequence (P05187 23-506 F129E/E451G limits assumed) above, with E107F, G429E counted along it
Protocol: as §1

[4] = target: T4, hPLALP E107 (Homo sapiens, UniProt P05187, F129E); test: Ki of uncompetitive inhibitors (pNPP substrate); assay type: biochemical; conditions: hPLALP mutant E107; read-out: Ki for various inhibitors
T4 construct: made in house
T4 sequence (P05187 23-506 F129E limits assumed): as the sequence (P05187 23-506 F129E/E451G limits assumed) above, with G429E counted along it
Protocol: as §1

[5] = target: T5, hPLALP G429 (Homo sapiens, UniProt P05187, E451G); test: Ki of uncompetitive inhibitors (pNPP substrate); assay type: biochemical; conditions: hPLALP mutant G429; read-out: Ki for various inhibitors
T5 construct: made in house; host or cells: COS-7 (given only for the TNAP-Flag constructs)
T5 sequence (P05187 23-506 E451G limits assumed): as the sequence (P05187 23-506 F129E/E451G limits assumed) above, with E107F counted along it
Protocol: as §1

[6] = target: T6, hPLALP H429 (Homo sapiens, UniProt P05187, E451H); test: Ki of uncompetitive inhibitors (pNPP substrate); assay type: biochemical; conditions: hPLALP mutant H429; read-out: Ki for various inhibitors
T6 construct: made in house; host or cells: COS-7 (given only for the TNAP-Flag constructs)
T6 sequence (P05187 23-506 E451H limits assumed): as the sequence (P05187 23-506 F129E/E451G limits assumed) above, with E107F, G429H counted along it
Protocol: as §1

[7] = target: T7, hPLALP S119 (Homo sapiens, UniProt P05187, N141S); test: Ki of uncompetitive inhibitors (pNPP substrate); assay type: biochemical; conditions: hPLALP mutant S119; read-out: Ki for various inhibitors
T7 construct: made in house; host or cells: COS-7 (given only for the TNAP-Flag constructs)
T7 sequence (P05187 23-506 N141S limits assumed): as the sequence (P05187 23-506 F129E/E451G limits assumed) above, with E107F, N119S, G429E counted along it
Protocol: as §1

[8] = target: hTNALP (Homo sapiens, UniProt P05186); test: biochemical
Sequence of hTNALP (P05186 18-501): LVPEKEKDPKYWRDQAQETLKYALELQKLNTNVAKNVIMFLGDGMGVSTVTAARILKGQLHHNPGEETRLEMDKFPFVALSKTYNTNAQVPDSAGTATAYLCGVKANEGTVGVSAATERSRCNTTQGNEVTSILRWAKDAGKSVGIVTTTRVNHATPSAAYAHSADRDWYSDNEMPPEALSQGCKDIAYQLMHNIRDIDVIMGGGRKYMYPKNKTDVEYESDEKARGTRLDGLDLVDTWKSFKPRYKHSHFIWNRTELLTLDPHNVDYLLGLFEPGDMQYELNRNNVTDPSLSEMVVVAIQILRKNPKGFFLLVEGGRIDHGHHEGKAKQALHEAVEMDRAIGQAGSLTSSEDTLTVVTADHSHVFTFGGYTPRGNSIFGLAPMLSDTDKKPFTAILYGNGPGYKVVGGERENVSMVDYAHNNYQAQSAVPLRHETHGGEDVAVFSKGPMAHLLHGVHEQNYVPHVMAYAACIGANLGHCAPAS

[9] = target: hTNALP A108 (Homo sapiens, UniProt P05186, E125A); test: biochemical
Sequence of hTNALP A108 (P05186 18-501 E125A): as the sequence (P05186 18-501) above, with E108A counted along it

[10] = target: hTNALP F108 (Homo sapiens, UniProt P05186, E125F); test: biochemical
Sequence of hTNALP F108 (P05186 18-501 E125F): as the sequence (P05186 18-501) above, with E108F counted along it

[11] = target: hTNALP A109 (Homo sapiens, UniProt P05186, G126A); test: biochemical
Sequence of hTNALP A109 (P05186 18-501 G126A): as the sequence (P05186 18-501) above, with G109A counted along it

[12] = target: hTNALP Q109 (Homo sapiens, UniProt P05186, G126Q); test: biochemical
Sequence of hTNALP Q109 (P05186 18-501 G126Q): as the sequence (P05186 18-501) above, with G109Q counted along it

[13] = target: hTNALP (F104, Q109) (Homo sapiens, UniProt P05186, E125F/G126Q); test: biochemical
Sequence of hTNALP (F104, Q109) (P05186 whole entry E125F/G126Q): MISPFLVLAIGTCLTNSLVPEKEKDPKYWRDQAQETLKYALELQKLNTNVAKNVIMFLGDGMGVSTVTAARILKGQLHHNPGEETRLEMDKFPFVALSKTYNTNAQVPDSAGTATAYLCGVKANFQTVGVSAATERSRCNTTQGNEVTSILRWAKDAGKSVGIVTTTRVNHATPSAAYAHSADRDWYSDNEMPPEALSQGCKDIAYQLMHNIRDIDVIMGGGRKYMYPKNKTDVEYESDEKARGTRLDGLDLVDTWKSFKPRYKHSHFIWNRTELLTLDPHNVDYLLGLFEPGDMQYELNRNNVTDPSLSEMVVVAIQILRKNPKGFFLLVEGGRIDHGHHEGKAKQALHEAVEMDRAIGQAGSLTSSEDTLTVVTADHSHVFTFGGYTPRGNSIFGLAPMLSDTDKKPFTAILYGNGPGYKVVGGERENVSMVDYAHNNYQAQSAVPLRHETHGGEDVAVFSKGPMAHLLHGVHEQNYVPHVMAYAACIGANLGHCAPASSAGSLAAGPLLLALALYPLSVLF

[14] = target: hTNALP A120 (Homo sapiens, UniProt P05186, S137A); test: biochemical
Sequence of hTNALP A120 (P05186 18-501 S137A): as the sequence (P05186 18-501) above, with S120A counted along it

[15] = target: hTNALP D120 (Homo sapiens, UniProt P05186, S137D); test: biochemical
Sequence of hTNALP D120 (P05186 18-501 S137D): as the sequence (P05186 18-501) above, with S120D counted along it

[16] = target: hTNALP N120 (Homo sapiens, UniProt P05186, S137N); test: biochemical
Sequence of hTNALP N120 (P05186 18-501 S137N): as the sequence (P05186 18-501) above, with S120N counted along it

[17] = target: hTNALP A166 (Homo sapiens, UniProt P05186, D183A); test: biochemical
Sequence of hTNALP A166 (P05186 18-501 D183A): as the sequence (P05186 18-501) above, with D166A counted along it

[18] = target: hTNALP N166 (Homo sapiens, UniProt P05186, D183N); test: biochemical
Sequence of hTNALP N166 (P05186 18-501 D183N): as the sequence (P05186 18-501) above, with D166N counted along it

[19] = target: hTNALP A168 (Homo sapiens, UniProt P05186, D185A); test: biochemical
Sequence of hTNALP A168 (P05186 18-501 D185A): as the sequence (P05186 18-501) above, with D168A counted along it

[20] = target: hTNALP N168 (Homo sapiens, UniProt P05186, D185N); test: biochemical
Sequence of hTNALP N168 (P05186 18-501 D185N): as the sequence (P05186 18-501) above, with D168N counted along it

[21] = target: hTNALP A433 (Homo sapiens, UniProt P05186, R450A); test: biochemical
Sequence of hTNALP A433 (P05186 18-501 R450A): as the sequence (P05186 18-501) above, with R433A counted along it

[22] = target: hTNALP A434 (Homo sapiens, UniProt P05186, H451A); test: biochemical
Sequence of hTNALP A434 (P05186 18-501 H451A): as the sequence (P05186 18-501) above, with H434A counted along it

[23] = target: hTNALP G434 (Homo sapiens, UniProt P05186, H451G); test: biochemical
Sequence of hTNALP G434 (P05186 18-501 H451G): as the sequence (P05186 18-501) above, with H434G counted along it

[24] = target: hTNALP S434 (Homo sapiens, UniProt P05186, H451S); test: biochemical
Sequence of hTNALP S434 (P05186 18-501 H451S): as the sequence (P05186 18-501) above, with H434S counted along it

[25] = target: hTNALP B434 (Homo sapiens, UniProt P05186, H451E); test: biochemical
Sequence of hTNALP B434 (P05186 whole entry H451E): as the sequence (P05186 whole entry E125F/G126Q) above, with F125E, Q126G, H451E counted along it

SMILES | Ki [1] | Ki [2] | Ki [3] | Ki [4] | Ki [5] | Ki [6] | Ki [7] | Ki [8] | Ki [9] | Ki [10] | Ki [11] | Ki [12] | Ki [13] | Ki [14] | Ki [15] | Ki [16] | Ki [17] | Ki [18] | Ki [19] | Ki [20] | other results
N[C@@H](Cc1ccccc1)C(=O)O [L-Phe, L-phenylalanine] | 11 ± 0.9 mM | 1 ± 0.16 mM | 0.75 ± 0.05 mM | 3.8 ± 0.4 mM | 0.09 ± 0.01 mM | 0.31 ± 0.03 mM | 0.67 ± 0.08 mM | 19 ± 6 mM | 27 ± 4 mM | 3.7 ± 0.5 mM | 20 ± 4 mM | 4 ± 1.1 mM | 2.1 ± 0.4 mM | 24 ± 2 mM | 34 ± 4 mM | 23 ± 8 mM | 24 ± 4 mM | 32 ± 5 mM | 30 ± 4 mM | 42 ± 6 mM | Ki [21]: 31 ± 3 mM; Ki [22]: 21 ± 6 mM; Ki [23]: 9.6 ± 1 mM; Ki [24]: 13 ± 2 mM; Ki [25]: 43 ± 8 mM
N=C(N)NCCCC[C@H](N)C(=O)O [L-hArg, L-homoarginine] | 1.9 ± 0.2 mM | 1.5 ± 0.2 mM | 59 ± 15 mM | 5.7 ± 0.9 mM | 12 ± 2 mM | 10.7 ± 1.5 mM | 61 ± 13 mM | 1.4 ± 0.1 mM | 14 ± 1 mM | 48 ± 11 mM | 1.3 ± 0.2 mM | 1.6 ± 0.1 mM | 15 ± 2 mM | 1.4 ± 0.1 mM | 1.4 ± 0.1 mM | 1.3 ± 0.1 mM | 1.6 ± 0.3 mM | 1.8 ± 0.1 mM | 1.5 ± 0.3 mM | 1.8 ± 0.1 mM | Ki [21]: 1.6 ± 0.2 mM; Ki [22]: 1.5 ± 0.1 mM; Ki [23]: 1.6 ± 0.2 mM; Ki [24]: 1.6 ± 0.1 mM; Ki [25]: 6.8 ± 0.5 mM
